Source: PubChem BioAssay (NCI)
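Five compound concentrations were applied to cells in 96-well plates for 48 hours; endpoints were derived by simple linear interpolation of the resulting dose-response curve. Abbreviation: GI50, concentration required for 50% inhibition of growth. Definition used: TGI = concentration required for complete inhibition of growth.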

Columns and labels:
Test in all cases: growth of human tumour cells (NCI), 48 h
[1] = system: A549 NSCLC
[2] = system: CAKI-1 renal
[3] = system: COLO 205 colon
[4] = system: HCC-2998 colon
[5] = system: MDA-MB-435
[6] = system: NCI-H460 lung
[7] = system: OVCAR-5 ovarian
[8] = system: SK-MEL-2 melanoma
[9] = system: SK-MEL-28 melanoma
[10] = system: TK-10 renal

Row | Compound | GI50 [1] [nM] | TGI [1] [nM] | GI50 [2] [nM] | TGI [2] [nM] | GI50 [3] [nM] | TGI [3] [nM] | GI50 [4] [nM] | TGI [4] [nM] | GI50 [5] [nM] | TGI [5] [nM] | GI50 [6] [nM] | TGI [6] [nM] | GI50 [7] [nM] | TGI [7] [nM] | GI50 [8] [nM] | TGI [8] [nM] | GI50 [9] [nM] | TGI [9] [nM] | GI50 [10] [nM] | TGI [10] [nM]
1 | COc1ccc(-c2cc(-c3ccccc3)nc(N3CCN(CCNc4ccnc5cc(Cl)ccc45)CC3)n2)cc1 | 1900 | 4390 | 2970 | 12100 | 1170 | 2660 | 1460 | 3020 | 1800 | 3310 | 1920 | 3780 | 1920 | 4990 | 6780 | 20800 | 1520 | 2940 | 2190 | 4880
2 | Nc1ncnc2c1ncn2CC(O)C(=O)O (stereo not given) | – | > 100000 | – | > 100000 | – | > 100000 | – | > 100000 | – | > 100000 | – | > 100000 | – | > 100000 | – | > 100000 | – | > 100000 | – | > 100000
3 | C[C@H]1[C@H](C)CC[C@]2(C(=O)N3CCN(C)CC3)CC[C@]3(C)C(=CC[C@@H]4[C@@]5(C)C/C(=C/c6cccnc6)C(=O)C(C)(C)[C@@H]5CC[C@]43C)[C@H]12 | 1060 | 2320 | 1220 | 2460 | 1530 | 4780 | 1280 | 2670 | 1130 | 2490 | 891 | 2450 | 1550 | 2910 | 1530 | 3080 | 1400 | 2760 | 1540 | 3040
4 | O=Cc1cn(Cc2cccc(Cl)c2)c2ccccc12 | 15900 | 48500 | 214 | 1890 | 355 | 14000 | 12500 | 26200 | 12200 | 28500 | < 11.2 | 15500 | 26.3 | 504 | 7700 | 26400 | 15900 | 31100 | 136 | 1270
5 | COc1ccc(C/C(C)=C(\c2ccc(OCCN3CCOCC3)cc2)c2ccc(OC(=O)Cc3ccccc3)cc2)cc1 | 1020 | 11200 | 729 | 2130 | 614 | 1540 | 668 | 1490 | 632 | 1340 | 713 | 1530 | 951 | 10700 | 657 | 1250 | 555 | 1060 | 778 | 2030
6 | CC(C)(O)C1CCC(Nc2ccc3ncc(-c4cccc(C(F)(F)F)c4)n3n2)CC1 (stereo not given) | 3100 | 13200 | 1670 | 7160 | 2620 | 21500 | 3260 | > 100000 | 2060 | > 100000 | 2700 | 12100 | 2920 | > 100000 | 2130 | 4820 | 1600 | 3910 | 2620 | 14100
7 | NC1=C(Br)C(=O)c2ncccc2C1=O | – | 2680 | – | 2840 | – | 3180 | – | 2610 | 168 | 313 | – | 1160 | – | 3490 | – | 1490 | – | 1250 | – | 5810
8 | C=C(C)C(=O)OC1CC2=CC(CC3(C)OC3C3OC(=O)C(=C)C13)OC2=O (stereo not given) | – | 36500 | – | 12700 | – | 7080 | – | 34800 | – | 30200 | – | 35100 | – | 34600 | – | 26400 | – | 26200 | – | 15300
9 | CC(C)[C@@]12C[C@@H](OC(=O)COC(=O)/C=C/c3ccccc3)[C@@](C)(O1)[C@@H]1CC[C@@H](C)[C@H]1[C@@H]2OC(=O)/C=C/c1ccccc1 | > 100000 | > 100000 | 81.3 | – | > 100000 | > 100000 | > 100000 | > 100000 | > 100000 | > 100000 | > 100000 | > 100000 | > 100000 | > 100000 | > 100000 | > 100000 | > 100000 | > 100000 | > 100000 | > 100000
10 | C=CC1=C[C@@H]2[C@@H]3O[C@]4(CC[C@H](O4)[C@@H](C)C[C@@H](O)C3=O)C[C@H](O)C3=NCC[C@@]32CC1 | < 3.33 | 4.59 | < 3.33 | 6.17 | < 3.33 | < 3.33 | < 3.33 | < 3.33 | < 3.33 | 3.34 | < 3.33 | < 3.33 | < 3.33 | 5.13 | < 3.33 | 11.7 | < 3.33 | < 3.33 | < 3.33 | 3.85
11 | CC(=O)Nc1ccccc1C=C1c2ccccc2-c2ccccc21 | – | > 100000 | – | > 100000 | – | > 100000 | – | > 100000 | – | > 100000 | – | > 100000 | – | > 100000 | – | > 100000 | – | > 100000 | – | > 100000
